Data reported in patent US20230157996A1, “SMALL-MOLECULE INHIBITOR TARGETING EB VIRUS NUCLEAR ANTIGEN PROTEIN, PREPARATION METHOD AND USE THEREOF” (priority 2020, published 2023).

These molecules were tested on C666-1 cells (assay: C666-1 cell viability single concentration (50 μM) inhibition rate (Resazurin)). Details: 50 μM compound, 72 hours, C666-1 cells.
Format: cell-based
How it was run: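 Resazurin fluorescence (560/590 nm, 3 h development) gave the proliferation inhibition rate, normalised to DMSO-treated and cell-free blank wells. Compound was tested at a single 50 μmol/L final concentration on C666-1 cells for 72 h at 37° C, with duplicate wells, after 24 h seeding.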
In the case of `COC(=O)c1cccc(C#CN(Cc2ccc(F)cc2)S(=O)(=O)c2ccc(C)cc2)c1-n1cccc1` [Example 344], the “C666-1 cell viability single concentration (50 μM) inhibition rate, Ratio* (Inh %)” value is reported as “+ (*Inh %: <10% +)”.

Same assay, conditions: Homo sapiens, C6661, 72 h, 50 μM compound, 72 hours, C666-1 cells; read-out: C666-1 cell viability single concentration (50 μM) inhibition rate, Ratio* (Inh %)
`COC(=O)c1cccc(C#CN(Cc2ccccc2)S(=O)(=O)c2cccs2)c1-n1cccc1` [Example 322, Methyl 3-((N-benzylthiophen-2-sulfonamido)ethynyl)-2-(1H-pyrrol-1-yl)benzoate] showed an inhibition at 50 µM of 10 to 30%.
Molecule `COC(=O)c1cccc(C#CN(Cc2ccccc2F)S(=O)(=O)c2cccs2)c1-n1cccc1` [Example 324, Methyl 3-((N-(2-fluorobenzyl)thiophen-2-sulfonamido)ethynyl)-2-(1H-pyrrol-1-yl)benzoate] has an inhibition at 50 µM of 10 to 30%.
For `COC(=O)c1cccc(C#CN(Cc2ccc(F)cc2)S(=O)(=O)c2cccs2)c1-n1cccc1` [Example 326, Methyl 3-((N-(4-fluorobenzyl)thiophen-2-sulfonamido)ethynyl)-2-(1H-pyrrol-1-yl)benzoate], the inhibition at 50 µM was 30 to 50%.
In the case of `COC(=O)c1cccc(C#CN(Cc2cccs2)S(=O)(=O)c2ccc(C)cc2)c1-n1cccc1` [Example 328, Methyl 3-(((4-methyl-N-(thiophen-2-yl-methyl)phenyl)sulfonamido)ethynyl)-2-(1H-pyrrol-1-yl)benzoate], the inhibition at 50 µM is reported as 10 to 30%.
In the case of `COC(=O)c1cccc(C#CN(Cc2ccccc2)S(=O)(=O)c2ccc3occc3c2)c1-n1cccc1` [Example 330, Methyl 3-((N-benzylbenzofuran-5-sulfonamido)ethynyl)-2-(1H-pyrrol-1-yl)benzoate], the inhibition at 50 µM is reported as over 50%.
`COC(=O)c1cccc(C#CN(Cc2ccc(CO)cc2)S(=O)(=O)c2ccc(C)cc2)c1-n1cccc1` [Example 332, Methyl 3-(((N-(4-(hydroxymethyl)benzyl)-4-methylphenyl)sulfonamido)ethynyl)-2-(1H-pyrrol-1-yl)benzoate] showed an inhibition at 50 µM of over 50%.
With `COC(=O)c1cccc(C#CN(Cc2ccc3c(ccn3C)c2)S(=O)(=O)c2csc3ccccc23)c1-n1cccc1` [Example 334, Methyl 3-((N-((1-methyl-1H-indol-5-yl)methyl)benzo[b]thiophen-3-sulfonamido)ethynyl)-2-(1H-pyrrol-1-yl)benzoate] the inhibition at 50 µM was over 50%.
`COC(=O)c1cccc(C#CN(Cc2ccc(C(F)(F)F)cc2)S(=O)(=O)c2cccs2)c1-n1cccc1` [Example 336, Methyl 3-((N-(4-(trifluoromethyl)benzyl)thiophen-2-sulfonamido)ethynyl)-2-(1H-pyrrol-1-yl)benzoate] showed an inhibition at 50 µM of under 10%.
With `COC(=O)c1cccc(C#CN(Cc2ccc3c(ccn3C)c2)S(=O)(=O)c2ccc3occc3c2)c1-n1cccc1` [Example 338, Methyl 3-((N-((1-methyl-1H-indol-5-yl)methyl)benzofuran-5-sulfonamido)ethynyl)-2-(1H-pyrrol-1-yl)benzoate] the inhibition at 50 µM was under 10%.
Molecule `COC(=O)c1cccc(C#CN(Cc2ccccc2)S(=O)(=O)c2ccccc2)c1-n1cccc1` [Example 340, Methyl 3-((N-benzyl-N-phenylsulfonamido)ethynyl)-2-(1H-pyrrol-1-yl)benzoate] has an inhibition at 50 µM of under 10%.
With `COC(=O)c1cccc(C#CN(Cc2ccc(C)cc2)S(=O)(=O)c2ccc(C)cc2)c1-n1cccc1` [Example 342] the inhibition at 50 µM was under 10%.
For `COC(=O)c1cccc(C#CN(Cc2ccc(C(F)(F)F)cc2)S(=O)(=O)c2ccc(C)cc2)c1-n1cccc1` [Example 346], the inhibition at 50 µM was 10 to 30%.
`COC(=O)c1cccc(N2CC(Sc3ccc(C(C)C)cc3)C2)c1-n1cccc1` [Example 348, Methyl 3-(3-((4-isopropylphenyl)thio)azetidin-1-yl)-2-(1H-pyrrol-1-yl)benzoate] was tested, and the inhibition at 50 µM was under 10%.
With `COC(=O)c1cccc(N2CC(Sc3ccc(Cl)cc3)C2)c1-n1cccc1` [Example 349, Methyl 3-(3-((4-chlorophenyl)thio)azetidin-1-yl)-2-(1H-pyrrol-1-yl)benzoate] the inhibition at 50 µM was under 10%.
With `COC(=O)c1cccc(N2CC(SC3CCCCC3)C2)c1-n1cccc1` [Example 350, Methyl 3-(3-(cyclohexylthio)azetidin-1-yl)-2-(1H-pyrrol-1-yl)benzoate] the inhibition at 50 µM was under 10%.
Molecule `COC(=O)c1cccc(N2CC(Sc3ccccc3)C2)c1-n1cccc1` [Example 351, Methyl 3-(3-(phenylthio)azetidin-1-yl)-2-(1H-pyrrol-1-yl)benzoate] has an inhibition at 50 µM of under 10%.
Molecule `COC(=O)c1cccc(N2CC(Sc3ccc(CO)cc3)C2)c1-n1cccc1` [Example 352, Methyl 3-(3-((4-(hydroxymethyl)phenyl)thio)azetidin-1-yl)-2-(1H-pyrrol-1-yl)benzoate] has an inhibition at 50 µM of over 50%.
`COC(=O)c1cccc(N2CC(S(=O)(=O)c3ccc(C(C)C)cc3)C2)c1-n1cccc1` [Example 353, Methyl 3-(3-((4-isopropylphenyl)sulfonyl)azetidin-1-yl)-2-(1H-pyrrol-1-yl)benzoate] was tested, and the inhibition at 50 µM was 10 to 30%.
Work on `COC(=O)c1cccc(N2CC(S(=O)(=O)c3ccc(Cl)cc3)C2)c1-n1cccc1` [Example 354, Methyl 3-(3-((4-chlorophenyl)sulfonyl)azetidin-1-yl)-2-(1H-pyrrol-1-yl)benzoate] yielded an inhibition at 50 µM of 10 to 30%.
Molecule `COC(=O)c1cccc(N2CC(S(=O)(=O)C3CCCCC3)C2)c1-n1cccc1` [Example 355, Methyl 3-(3-(cyclohexylsulfonyl)azetidin-1-yl)-2-(1H-pyrrol-1-yl)benzoate] has an inhibition at 50 µM of 10 to 30%.
In the case of `COC(=O)c1cccc(N2CC(S(=O)(=O)c3ccccc3)C2)c1-n1cccc1` [Example 356, Methyl 3-(3-(phenylsulfonyl)azetidin-1-yl)-2-(1H-pyrrol-1-yl)benzoate], the inhibition at 50 µM is reported as under 10%.
In the case of `COC(=O)c1cccc(N2CC(S(=O)(=O)c3ccc(CO)cc3)C2)c1-n1cccc1` [Example 357, Methyl 3-(3-((4-(hydroxymethyl)phenyl)sulfonyl)azetidin-1-yl)-2-(1H-pyrrol-1-yl)benzoate], the inhibition at 50 µM is reported as under 10%.
In the case of `COC(=O)c1cccc(N2CC(Oc3ccc(COc4cncc(F)c4)cc3)C2)c1-n1cccc1` [Example 358, Methyl 3-(3-(4-(((5-fluoropyridin-3-yl)oxy)methyl)phenoxy)azetidin-1-yl)-2-(1H-pyrrol-1-yl)benzoate], the inhibition at 50 µM is reported as 10 to 30%.
For `O=C(O)c1cccc(N2CC(Oc3ccc(COc4cncc(F)c4)cc3)C2)c1-n1cccc1` [Example 359, 3-(3-(4-(((5-fluoropyridin-3-yl)oxy)methyl)phenoxy)azetidin-1-yl)-2-(1H-pyrrol-1-yl)benzoic acid], the inhibition at 50 µM was under 10%.
Molecule `COC(=O)c1cccc(N2CC(Oc3ccc(COc4cncnc4)cc3)C2)c1-n1cccc1` [Example 360, Methyl 3-(3-(4-((pyrimidin-5-yl-oxy)methyl)phenoxy)azetidin-1-yl)-2-(1H-pyrrol-1-yl)benzoate] has an inhibition at 50 µM of under 10%.

Same assay, conditions: Homo sapiens, C6661, 72 h, read-out: C666-1 cell viability single concentration (50 μM) inhibition rate, Ratio* (Inh %)
With `O=C(O)c1cccc(C#CN(Cc2ccccc2)S(=O)(=O)c2cccs2)c1-n1cccc1` [Example 323, Lithium 3-((N-benzylthiophen-2-sulfonamido)ethynyl)-2-(1H-pyrrol-1-yl)benzoate] the inhibition at 50 µM was under 10%.
In the case of `O=C(O)c1cccc(C#CN(Cc2ccccc2F)S(=O)(=O)c2cccs2)c1-n1cccc1` [Example 325, Lithium 3-((N-(2-fluorobenzyl)thiophen-2-sulfonamido)ethynyl)-2-(1H-pyrrol-1-yl)benzoate], the inhibition at 50 µM is reported as 30 to 50%.
`O=C(O)c1cccc(C#CN(Cc2ccc(F)cc2)S(=O)(=O)c2cccs2)c1-n1cccc1` [Example 327, Lithium 3-((N-(4-fluorobenzyl)thiophen-2-sulfonamido)ethynyl)-2-(1H-pyrrol-1-yl)benzoate] showed an inhibition at 50 µM of over 50%.
Molecule `Cc1ccc(S(=O)(=O)N(C#Cc2cccc(C(=O)O)c2-n2cccc2)Cc2cccs2)cc1` [Example 329, Lithium 3-(((4-methyl-N-(thiophen-2-yl-methyl)phenyl)sulfonamido)ethynyl)-2-(1H-pyrrol-1-yl)benzoate] has an inhibition at 50 µM of over 50%.
With `O=C(O)c1cccc(C#CN(Cc2ccccc2)S(=O)(=O)c2ccc3occc3c2)c1-n1cccc1` [Example 331, Lithium 3-((N-benzylbenzofuran-5-sulfonamido)ethynyl)-2-(1H-pyrrol-1-yl)benzoate] the inhibition at 50 µM was under 10%.
`Cc1ccc(S(=O)(=O)N(C#Cc2cccc(C(=O)O)c2-n2cccc2)Cc2ccc(CO)cc2)cc1` [Example 333, Lithium 3-(((N-(4-(hydroxymethyl)benzyl)-4-methylphenyl)sulfonamido)ethynyl)-2-(1H-pyrrol-1-yl)benzoate] gave an inhibition at 50 µM of over 50%.
Work on `Cn1ccc2cc(CN(C#Cc3cccc(C(=O)O)c3-n3cccc3)S(=O)(=O)c3csc4ccccc34)ccc21` [Example 335, Lithium 3-((N-((1-methyl-1H-indol-5-yl)methyl)benzo[b]thiophen-3-sulfonamido)ethynyl)-2-(1H-pyrrol-1-yl)benzoate] yielded an inhibition at 50 µM of under 10%.
In the case of `O=C(O)c1cccc(C#CN(Cc2ccc(C(F)(F)F)cc2)S(=O)(=O)c2cccs2)c1-n1cccc1` [Example 337, Lithium 3-((N-(4-(trifluoromethyl)benzyl)thiophen-2-sulfonamido)ethynyl)-2-(1H-pyrrol-1-yl)benzoate], the inhibition at 50 µM is reported as 10 to 30%.
For `Cn1ccc2cc(CN(C#Cc3cccc(C(=O)O)c3-n3cccc3)S(=O)(=O)c3ccc4occc4c3)ccc21` [Example 339, Lithium 3-((N-((1-methyl-1H-indol-5-yl)methyl)benzofuran-5-sulfonamido)ethynyl)-2-(1H-pyrrol-1-yl)benzoate], the inhibition at 50 µM was under 10%.
For `O=C(O)c1cccc(C#CN(Cc2ccccc2)S(=O)(=O)c2ccccc2)c1-n1cccc1` [Example 341, 3-((N-benzyl-N-phenylsulfonamido)ethynyl)-2-(1H-pyrrol-1-yl)benzoic acid], the inhibition at 50 µM was under 10%.
Molecule `Cc1ccc(CN(C#Cc2cccc(C(=O)O)c2-n2cccc2)S(=O)(=O)c2ccc(C)cc2)cc1` [Example 343] has an inhibition at 50 µM of under 10%.
For `Cc1ccc(S(=O)(=O)N(C#Cc2cccc(C(=O)O)c2-n2cccc2)Cc2ccc(C(F)(F)F)cc2)cc1` [Example 347], the inhibition at 50 µM was 30 to 50%.
